Measured values reported in US20240123079A1 (Seagen Inc., priority 2021, published 2024).

Experiments:
MOLM-13 = test: Cancer cell direct cytotoxicity assay (CellTiter-Glo), MOLM-13; format: cell-based; conditions: Homo sapiens; MOLM-13, 96 h, free compound; read-out: Compound X50
Procedure: Bystander activity of ADCs was evaluated using Renca cancer cells and THP1-Dual™ cells (InvivoGen) which contain an IRF-Lucia luciferase reporter. Cells were cultured in RPMI-1640 (Gibco) with 10% heat-inactivated fetal bovine serum, Pen-Strep (100 U/ml-100 μg/ml, Gibco), HEPES (10 mM, Gibco), sodium pyruvate (1 mM, Gibco), MEM non-essential amino acids (1×, Gibco), GlutaMAX (1×, Gibco), and beta-mercaptoethanol (55 μM, Gibco). Renca cells were plated in a 96-well flat bottom tissue culture-treated clear polystyrene plate (Corning Costar #3596) at 50,000 cells per well in 100 μL. On the day following the initial plating, 50,000 THP1-Dual™ cells were added to each well with the indicated concentration of ADC in a total volume of 200 μL. Supernatant was harvested at 48 hours post addition of the THP1-Dual™ cells. To measure Lucia reporter signal, 10 μL of supernatant was combined with 40 μL of QUANTI-Luc™ Luminescence assay reagent (Invivogen PN: rep-qlc1) in a 96-well clear flat bottom tissue culture-treated black polystyrene plate (Corning Costar PN: 3603) and read on a Perkin Elmer Envision plate reader. In some experiments, HEK 293T cells engineered to express a murine protein typically expressed by immune cells (target antigen C— an immune cell antigen) were plated as above instead of Renca tumor cells. Cancer Cell Direct Cytotoxicity Assay
Cancer cells were counted and plated in 40 μL complete growth media in 384-well, white-walled tissue culture treated plates (Corning). Cell plates were incubated at 37° C. and with 5% CO2 overnight to allow the cells to equilibrate. Stock solutions containing ADCs or free drugs were serially diluted in RPMI-1640+20% fetal bovine serum (FBS). 10 μL of each concentration were then added to each cell plate in duplicate. Cells were then incubated at 37° C. and with 5% CO2 for 96 hours, upon which, the cell plates were removed from the incubator and allowed to cool to room temperature for 30 minutes prior to analysis. […] The luminescence of the samples was measured using an EnVision Multimode plate reader (Perkin Elmer, Waltham, MA). […]

[1] = In vivo cytokine assay, plasma of Renca tumor-bearing mice; design: species or system mouse; conditions: for IL1β in plasma / IL12p70 in plasma / IL-6 in plasma / IL-10 in plasma / IP10 in plasma / MCP-1 in plasma / IFNγ in plasma: Renca tumor-bearing mice, 1.48 mg/kg
Procedure: Cytokines were measured in mouse plasma harvested at 3, 6, 24, or 48 hours after treatment with compounds or ADCs using a Milliplex MAP mouse cytokine/chemokine magnetic bead panel assay kit (MCYTOMAG-70k custom 11-plex kit: MCP1, MIP1α, MIP1β, TNFα, IFNγ, IL-10, IL-12p70, IL-6, IL-1β, IP10, RANTES) and analyzed using a Luminex™ MAGPIX™ Instrument System. Values that were outside of the standard curve range (<3.2 or […]) were excluded from calculation of the mean values.

For `CCn1nc(C)cc1C(=O)Nc1nc2cc(C(N)=O)cc(O)c2n1C/C=C/Cn1c(NC(=O)c2cc(C)nn2CC)nc2cc(C(N)=O)cc(OC)c21` [Compound 1, (E)-1-(4-(5-carbamoyl-2-(1-ethyl-3-methyl-1H-pyrazole-5-carboxamido)-7-hydroxy-1H-benzo[d]imidazol-1-yl)but-2-en-1-yl)-2-(1-ethyl-3-methyl-1H-pyrazole-5-carboxamido)-7-methoxy-1H-benzo[d]imidazole-5-carboxamide], the IC50 (MOLM-13) was 42 nM, the IL1β in plasma ([1]; 3 h) was 0.7 pg/mL and the IL12p70 in plasma ([1]; 3 h) was 174 pg/mL. It also gave an IL-6 in plasma ([1]; 3 h) of 95.7 pg/mL, an IL-10 in plasma ([1]; 3 h) of 48.8 pg/mL and an IP10 in plasma ([1]; 3 h) of 703 pg/mL. For the same compound, the MCP-1 in plasma ([1]; 3 h) was 168 pg/mL, the IFNγ in plasma ([1]; 6 h) was 0.2 pg/mL and the IL1β in plasma ([1]; 6 h) was 1.5 pg/mL. For the same compound, the IL12p70 in plasma ([1]; 6 h) was < 3.2 pg/mL, the IL-6 in plasma ([1]; 6 h) was 6.8 pg/mL and the IL-10 in plasma ([1]; 6 h) was 0.8 pg/mL. The IP10 in plasma ([1]; 6 h) was 3390 pg/mL, the MCP-1 in plasma ([1]; 6 h) was 796 pg/mL and the IFNγ in plasma ([1]; 24 h) was < 3.2 pg/mL. It also gave an IL1β in plasma ([1]; 24 h) of 0.8 pg/mL, an IL12p70 in plasma ([1]; 24 h) of 140 pg/mL and an IL-6 in plasma ([1]; 24 h) of 13.5 pg/mL. For the same compound, the IL-10 in plasma ([1]; 24 h) was 34.6 pg/mL, the IP10 in plasma ([1]; 24 h) was 551 pg/mL and the “systemic pro-inflammatory cytokine (IL-6 and TNF) production” value ([1]; plasma of tumor-bearing mice) was “induced very little pro-inflammatory cytokine (IL-6 and TNF) production”.
